Source: patent US20100255580A1, “Differentiation of Human Embryonic Stem Cells” (LIFESCCAN, INC., priority 2007, published 2010)

Key:
Type in all cases: cell-based
[1] = tested on: human embryonic stem cell line H1; assay: Real-time PCR of definitive endoderm markers, H1 on human serum or […] (Examples 30, 31, 35); settings: for expression of definitive endoderm markers: H1 passage 55 on human serum coated plates, with activin A, vs activin A only
Procedure: Cultures of the human embryonic stem cell line H1 at passage 55 were grown and differentiated on human serum (Sigma, #H1388, MO) coated plates. 0.5 ml of human serum was added to each well of 6 well tissue culture treated dish, incubated for 1 hr at room temperature, and aspirated before adding human embryonic stem cells. After cells reached 80% confluency, they were treated as follows: 2 days 0.5% FBS containing 10 ng/ml mouse recombinant Wnt3a (R&D) or 100 nM GSK-3B inhibitor IX (Catalog #361550, Calbiochem, CA) and 100 ng/mlActivin A (R&D). This was followed by 3 days 2% FBS plus 100 ng/mlActivin A. Cultures were then analyzed by real-time PCR (FIG. 46, panels a & b). […] These findings parallel our findings for human embryonic stem cells cultured on […]™ or human fibronectin coated plates.
The effectiveness of a number of commercially available GSK-3B inhibitors was evaluated in formation of DE from human embryonic stem cells. The following GSK-3B inhibitors were evaluated at 100 nM: GSK-3B inhibitor VIII (Catalog #361549, Calbiochem, CA), GSK-3B inhibitor IX (Catalog #361550, Calbiochem, CA), GSK-3B inhibitor XI (Catalog #361553, Calbiochem, CA), GSK-3B inhibitor XII (Catalog #361554, Calbiochem, CA). […] Control cultures were treated with low serum plus high dose of AA. FIG. 47, panels a and b depicts the gene expression of definitive endoderm markers at day 5. GSK-3B inhibitor IX and XI were both effective in inducing DE formation as compared to GSK-3B inhibitor VIII and XII.
The following combinations of WNT1+AA were tested:
a) 20 ng/ml of WNT1+100 ng/ml AA in 0.5% FBS+DM-F12 for days 1-2 followed by 2% FBS+DM-F12+100 ng/ml AA for day three, b) 20 ng/ml of WNT1+100 ng/ml AA in 0.5% FBS+DM-F12 for days 1-2 followed by 2% FBS+DM-F12+100 ng/ml AA for days 3-5, c) 10 ng/ml of WNT1+100 ng/ml AA in 0.5% FBS+DM-F12 for days 1-2 followed by 2% FBS+DM-F12+100 ng/ml AA for day three, d) 10 ng/ml of WNT1+100 ng/ml AA in 0.5% FBS+DM-F12 for days 1-2 followed by 2% FBS+DM-F12+100 ng/ml AA for days 3-5, e) 20 ng/ml of WNT1+100 ng/ml AA in 0.5% FBS+DM-F12 for days 1-2 followed by 2% FBS+DM-F12+100 ng/ml AA+20 ng/ml of WNT1 for day three, f) 20 ng/ml of WNT1+100 ng/ml AA in 0.5% FBS+DM-F12 for days 1-2 followed by 2% FBS+DM-F12+100 ng/ml AA+20 ng/ml of WNT1 for days 3-5.

[2] = tested on: human embryonic stem cell line H9; assay: FACS analysis of protein expression following activin A treatment, H9 on MEF; settings: for CD9 protein expression (FACS) / CXCR4 protein expression (FACS) / ECAM protein expression (FACS) / NCAM protein expression (FACS) / SSEA-3 protein expression (FACS): activin A 100 ng/ml
Procedure: The level of expression of definitive endoderm markers was examined by PCR (FIG. 1), FACS (results summarized in Table II), and immunohistochemistry (FIG. 2).
Adhered cells were removed from culture plates by five-minute incubation with TrypLE™ Express solution (Invitrogen, CA). Released cells were resuspended in human embryonic stem cell culture medium and recovered by centrifugation, followed by washing and resuspending the cells in a staining buffer consisting of 2% BSA, 0.05% sodium azide in PBS (Sigma, MO). As appropriate, the cells were Fc-receptor blocked for 15 minutes using a 0.1% γ-globulin (Sigma) solution. […] Controls included appropriate isotype matched antibodies, unstained cells, and cells stained only with secondary conjugated antibody. All incubations with antibodies were performed for 30 mins at 4° C. after which the cells were washed with the staining buffer. Samples that were stained with unconjugated primary antibodies were incubated for an additional 30 mins at 4° C. with secondary conjugated PE or -APC labeled antibodies. See Table I for a list of secondary antibodies used. Washed cells were pelleted and resuspended in the staining buffer, and the cell surface molecules were identified using a FACS Array (BD Biosciences) instrument, collecting at least 10,000 events.

[3] = tested on: human embryonic stem cell line H9; assay: Real-time PCR of marker gene expression, H9 on MEF (Examples 2-7)
Procedure: Cells were harvested at the time points indicated in FIG. 3 and assayed by PCR for the expression of genes shown (FIGS. 3, 4 and 5).
After this time interval, the cells were then treated for six days with combinations of retinoic acid and FGF as outlined in Example 2, then the culture medium was removed and replaced with medium comprising DMEM/F12 with 2% FBS, containing the γ-secretase inhibitors L-685,458 at 10 μM for three days.
Cells were continuously cultured for another 3 to 5 days in basal medium with retinoic acid at 1 μM, alone or with bFGF. RNA samples were harvested from cells at various time points along this process to help evaluate the directed differentiation of the cells. Furthermore, culture medium and factors were regularly removed and replenished throughout the differentiation protocol.
RNA extraction, purification, and cDNA synthesis. RNA samples were purified by binding to a silica-gel membrane (Rneasy Mini Kit, Qiagen, CA) in the presence of an ethanol-containing, high-salt buffer followed by washing to remove contaminants. The RNA was further purified using a TURBO DNA-free kit (Ambion, INC), and high-quality RNA was then eluted in water. Yield and purity were assessed by A260 and A280 readings on a spectrophotometer. cDNA copies were made from purified RNA using an ABI (ABI, CA) high capacity cDNA archive kit.
Real-time PCR amplification and quantitative analysis.
Final data were expressed relative to a calibrator sample.

## O=C1Nc2cc(Br)ccc2/C1=C1/Nc2ccccc2/C1=N\O [GSK-3B inhibitor IX, reference compound]
[1]; H1P54 on MATRIGEL, 100 nM for first two days, compared to GSK-3B inhibitor VIII and XII
  inducing DE formation: effective
[1]
  expression of definitive endoderm markers: Robust expression

## Activin A: a member of the TGFβ superfamily; R&D Systems; Group 2 = Activin A (100 ng/ml)
[2]; 2-DAY
  CD9 protein expression (FACS): 29.42%
  CXCR4 protein expression (FACS): 20.2%
  ECAM protein expression (FACS): 20.87%
  NCAM protein expression (FACS): 5.04%
  SSEA-3 protein expression (FACS): 92.14%
[2]; 5-DAY
  CD9 protein expression (FACS): 7.27%
  CXCR4 protein expression (FACS): 55.26%
  ECAM protein expression (FACS): 14.17%
  NCAM protein expression (FACS): 21.1%
  SSEA-3 protein expression (FACS): 42.9%
[2]; 8-DAY
  CD9 protein expression (FACS): 4.1%
  CXCR4 protein expression (FACS): 56.92%
  ECAM protein expression (FACS): 1.02%
  NCAM protein expression (FACS): 8.86%
  SSEA-3 protein expression (FACS): 22.05%
[2]; following activin A treatment
  expression of E-cadherin and N-cadherin (FACS): did not change
[3]; 50 ng/ml activin A with 50 ng/ml basic FGF and 1 μM Retinoic Acid
  increase of Nkx2.2 expression compared to samples without activin A: about 35 fold
[3]; Activin A 100 ng/ml up to seven days, 0% to 2% serum
  Pdx1 gene expression: no Pdx1 gene expression was observed
[3]; H9, activin A 100 ng/ml
  expression of Brachyury: decreased
  expression of the neuronal marker Zic1: no effect
[3]; H9, activin A 100 ng/ml, one to seven days
  expression of the extraembryonic endoderm markers Sox7 and AFP: time-dependent decrease
[3]; H9, activin A 100 ng/ml, three and five days
  anterior endoderm markers, Cerberus, Otx-1 and Hex genes: significant up regulation
[3]; H9 line, activin A 100 ng/ml, two, five and eight days
  expression of CXCR4, GATA4, HNF-3beta, Mix11 and Sox-17 mRNA: time-dependent increase
[3]; activin A alone or in combination with retinoic acid and FGFs
  expression of Ngn3 or Insulin: did not induce
[3]; activin A or retinoic acid alone
  expression of Pdx1: did not induce

## Wnt-3a
[1]
  expression of definitive endoderm markers: Robust expression
